US20130237487A1, “CRYSTALLINE AND NON-CRYSTALLINE FORMS OF SGLT2 INHIBITORS” (SCINOPHARM TAIWAN, LTD., priority 2011, published 2013)
“Also recorded” adds a separate entry of the source.

Key:
[1] = Dynamic vapor sorption (DVS) analysis; settings: for sorption/desorption behavior between cycles: DVS isotherm plots, two sorption/desorption cycles; for hygroscopicity (moisture sorption) / physical stability of the solid form as humidity is changed: DVS; for hygroscopicity (moisture sorption): relative humidity increased from 0% to 90%; for physical stability of the solid form as humidity is changed: up to 90% RH
[2] = Hydration-state stability of Form CS3 under different humidity (DSC/TGA, Karl Fischer titration); type: physicochemical
From the text: Form CS3 has been further characterized using DSC/TGA and Karl Fischer titration. […] Dehydration, which is reversible, only occurs when the sample is exposed to a low humidity environment (e.g., less than about 10% RH). […] The DSC/TGA traces of crystalline complex Form CS3 of canagliflozin are in accordance with FIG. 17. The aforementioned physical stability characteristic of this embodiment makes the crystalline complex Form CS3 of canagliflozin a preferred solid form of canagliflozin of this invention.
(FIG. 20) is essentially the same as the XRPD pattern acquired at 25° C. (FIG. 15). Thus, from the XRPD patterns acquired at 25° C. and 100° C., it can be reasonably concluded that although Form CS3 is a monohydrate under ambient conditions (such as in an analytical chemistry laboratory), it can also exist as an anhydrate at low humidity, such as less than about 10% RH, and at temperatures higher than ambient temperature.

[3] = laboratory environmental conditions

| hygroscopicity (moisture sorption) [1] | physical stability (hydration state) ([2]; highly humid conditions) | hygroscopicity [2, 3] | physical stability (hydration state) [2, 3] | relative humidity at which (reversible) dehydration occurs ([2]; low humidity environment) | Structure (SMILES) | sorption/desorption behavior between cycles [1] | physical stability of the solid form as humidity is changed [1] |
| --- | --- | --- | --- | --- | --- | --- | --- |
| not hygroscopic |  |  |  |  | Cc1ccc([C@@H]2O[C@H](CO)[C@@H](O)[C@H](O)[C@H]2O)cc1Cc1ccc(-c2ccc(F)cc2)s1.O=C(O)[C@@H]1CCCN1 [Form CS1] | completely consistent between cycles | stable in the presence or absence of moisture |
|  | remains as a monohydrate | non-hygroscopic | stable as a monohydrate | less than 10 % RH | Cc1ccc([C@@H]2O[C@H](CO)[C@@H](O)[C@H](O)[C@H]2O)cc1Cc1ccc(-c2ccc(F)cc2)s1 [Form CS3] |  |  |
| significantly hygroscopic |  |  |  |  | Cc1ccc([C@@H]2O[C@H](CO)[C@@H](O)[C@H](O)[C@H]2O)cc1Cc1ccc(-c2ccc(F)cc2)s1 [amorphous form of canagliflozin, (2S,3R,4R,5S,6R)-2-{3-[5-[4-fluoro-phenyl)-thiophen-2-ylmethyl]-4-methyl-phenyl}-6-hydroxymethyl-tetrahydro-pyran-3,4,5-triol] | second sorption/desorption cycle was different from the first cycle; also recorded: inconsistent between the two cycles | conversion or partial conversion from the amorphous state to a crystalline state; also recorded: undergoes physical change (from amorphous to crystalline) |
